Reference: patent publication US20260034200A1, “TOLEROGENIC PEPTIDES” (University of Birmingham, priority 2022, published 2026)
Ends that are not written are not given here.

Tests used:
[1] = system: GAD65 P10-specific T-cell hybridomas; assay: T-cell hybridoma screen with Priess cells as APCs, IL-2 ELISA; type: cell-based, mouse; conditions: for epitope mapping by hybridoma response: 15-mers and truncated peptides, hybridomas SC3 and SC22, 48 h co-culture
Protocol: HLA-DR4 transgenic mice were injected subcutaneously with Complete Freund's Adjuvant (CFA) and 100 μg of GAD65 P10 30-mer. After 10 days, splenocytes were isolated and re-stimulated with GAD65 P10 30-mer for a further 4-5 days before fusion with hypoxanthine-aminopterin-thymidine (HAT) sensitive BW5147 cells using polyethylene glycol (PEG). Fused hybridomas were expanded in HAT selection media before antigen-specific screening. Co-cultures of 1×10^5 hybridomas and 2×10^5 Priess cells (an Epstein-Barr Virus (EBV) transformed DR4 (DRB1*04:01) expressing human cell line (ECACC 86052111)) as antigen presenting cells (APCs) were incubated for 48 h in a 96-well plate with peptide, whole GAD65 protein, or media only. Antigen-specific responses were determined by IL-2 secretion into culture supernatant by ELISA assay (BioLegend 431004). Hybridomas that proliferated in response to both GAD65 protein and GAD65 30-mer were single cell cloned by limiting dilution.
Six 15-mers that spanned the parent 30-mer amino acid sequence were generated by 3 amino acid shifts from the N-terminus toward the C-terminus.

[2] = Solubility in PBS; type: physicochemical
Protocol: Peptides were synthesized by GL Biochem (Shanghai) Ltd or Genscript (Leiden, The Netherlands). Peptides were >90% purity, resuspended from lyophilised powder in either 100% v/v dimethyl sulfoxide (DMSO) for 30-mers or PBS for soluble peptides. GAD65 protein was synthesised by Biologics Corporation. Purified protein derivative (PPD; Prionics; 7600060) was used at 300 IU/mL. Keyhole limpet haemocyanin (KLH; ThermoFisher Scientific; 77600) was used at 20 μg/mL.
Iterations designed around the core minimal epitope included retention of non-critical residues and/or addition of multiple lysine residues to both the N- and C-termini (FIG. 3E). […] Although P10.5.C.6K contains only the critical core epitope with additional lysine residues, the re-inclusion of the single non-critical alanine at the C-terminus (P10.5.C+1.6K), increased the potency of the single-clone hybridoma response by 10-fold (FIG. 3F).

[3] = system: MHC class II molecules on fixed or non-fixed HLA-DR4 transgenic mouse splenocytes (hybridoma SC3 readout); assay: Fixed APC T-cell hybridoma screen; type: cell-based; conditions: co-culture with formaldehyde fixed and non-fixed HLA-DR4 splenocytes, 48 h
Protocol: Splenocytes from HLA-DR4 transgenic mice were formaldehyde fixed by the following protocol performed at room temperature; 5 min incubation with 0.5% w/v formaldehyde in PBS at 1×10^6 cells/mL quenched by addition of an equal volume of 0.4 M glycine in PBS solution for a further 5 min, before three washes with cold PBS. T-cell hybridoma screens were set up using 1×10^5 hybridomas and either 2×10^5 formaldehyde fixed APCs or 2×10^5 non-fixed APCs for 48 h co-culture with stimulant or control and responses measured by IL-2 secretion.
(§1) The next step was to test if GAD65 P10.5.C+1.6K (P10Sol; SEQ ID NO 23) could bind to: (i) MHC class II molecules without antigen processing and, (ii) to steady-state CD11c^+ APCs. These properties are good indicators of whether a peptide can induce tolerance and be characterised as an apitope (Shepard et al., 2021). Formaldehyde fixation of splenocytes inhibits antigen processing and so to test whether GAD65 P10Sol could bind directly to cell-surface MHC class II without antigen processing, GAD65 P10-specific hybridoma SC3 was co-cultured with fixed or non-fixed splenocytes from HLA-DR4 transgenic mice. […] To test whether P10Sol could bind to steady-state CD11c^+ APCs in vivo, HLA-DR4 transgenic mice were injected with 80 μg of P10Sol or PBS, with CD11c^+ splenocytes isolated 1 h later and co-cultured with GAD65 P10 hybridomas SC3 or SC22. […]

[4] = system: steady-state CD11c+ APCs; assay: Steady state CD11c+ peptide binding assay; type: in vivo, HLA-DR4 transgenic mice; conditions: antigen added exogenously to the in vitro culture
Protocol: HLA-DR4 transgenic mice were injected subcutaneously with 80 μg of GAD65 P10.5.C+1.6K (GAD65 P10Sol) peptide, before isolation of CD11c^+ splenocytes 1 h later CD11c^+ positive selection kit (Miltenyi; 130-125-835). T-cell hybridoma responses were measured by secreted IL-2 after a 48 h co-culture of 0.5×10^5 CD11c^+ cells with 1×10^5 GAD65 P10-specific hybridomas with or without exogenous antigen added in vitro.
as §1

[5] = molecular target: T1, HLA-DR4 MHC class II (HLA-DRA*0101, HLA-DRB1*0401) (human, UniProt P01903 26-254; P01911 30-266, limits assumed); assay: IL-2 response of hybridoma SC3 with formaldehyde-fixed or non-fixed HLA-DR4 transgenic splenocytes
T1 construct: whole, on cells; On splenocytes or CD11c+ splenocytes of HLA-DR4 transgenic mice; also called MHCII; DR4 (DRB1*04:01)
T1 MHC II alpha: not shown
T1 MHC II beta: not shown
Excerpt: as §1, with “CD11c⁺” for “CD11c^+”, “mice. Response to whole GAD65 protein required antigen processing from non-fixed splenocytes, whereas both GAD65 P10 30-mer and GAD65 P10Sol (SEQ ID NO 23) induced strong IL-2 responses from hybridoma SC3 when co-cultured with both fixed and non-fixed splenocytes (FIG. 3G).” for “mice.”

[6] = molecular target: T1, HLA-DR4 MHC class II (HLA-DRA*0101, …); assay: cell-based or functional assay
[7] = molecular target: TCRs of individuals with type 1 diabetes; assay: cell-based or functional assay

Molecule: KHKWKLSGVERANSV [P10.5 15-mer]
- epitope mapping by hybridoma response [1]: responsive 15-mer

Molecule: KKKWKLSGVERAKKK [Peptide P10Sol, KKKWKLSGVERAKKK]
- solubility in PBS [2]: highly soluble

Molecule: KKKWKLSGVERKKK [Peptide P10.5.C.6K, KKKWKLSGVERKKK]
- solubility in PBS [2]: highly soluble

Molecule: WKLSGVER [Peptide P10.5.C]
- epitope mapping by hybridoma response [1]: minimal core epitope

Molecule: glutamate decarboxylase 65 (GAD65) [GAD65 protein, reference compound]
- hybridoma IL-2 response ([1]; hybridoma multi-clone 6 with HLA-DRB1*04:01 expressing APCs): could respond
- IL-2 response from hybridoma SC3 [3]: required antigen processing from non-fixed splenocytes
- IL-2 response of P10-specific hybridomas to CD11c+ cells from PBS injected mice [4]: observed

B1: GAD65 P10 30-mer (peptide)
peptide: DAAWGGGLLMSRKHKWKLSGVERANSVTWN
notes: Synthetic 30-residue fragment of human GAD65
- binding result [5]: binds

B2: GAD65 P10.5.C+1.6K (P10Sol) (peptide)
peptide: KKKWKLSGVERAKKK
- potency of the single-clone hybridoma IL-2 response with Priess cells, against P10.5.C.6K (SEQ ID NO 22) [6]: 10 fold
- FAIM+ (CD25+ CD71+ CTVmid CD4 T-cell) response of T1D patient PBMCs; share of P10 30-mer responders that also responded to P10Sol [7]: 38%
